Test results reported in the NIST ThermoML archive (doi:10.1016/j.tca.2011.06.020).

What was measured:
[1] = 101 kPa, Liquid; for speed of sound: Sing-around technique in a fixed-path interferometer; for mass density: Vibrating tube method
[2] = xn = mol fraction of the nth substance listed; conditions: 101 kPa, Liquid; for speed of sound: Sing-around technique in a fixed-path interferometer; for mass density: Vibrating tube method

Cc1ccccc1N [2-methylaniline]
[1]
Conditions | mass density [kg/m3] | speed of sound [m/s]
298.15 K | 994.351 | 1602.6
303.15 K | 990.224 | 1577.8
308.15 K | 986.069 | 1558.4

CNC=O [N-methylformamide]
[1]
Conditions | mass density [kg/m3] | speed of sound [m/s]
298.15 K | 999.004 | 1432.9
303.15 K | 994.653 | 1417.7
308.15 K | 990.302 | 1402.5

CNC=O [N-methylformamide] + Cc1ccccc1N
[2], x2 = 0
Conditions | mass density [kg/m3] | speed of sound [m/s]
298.15 K | 999.004 | 1432.9
303.15 K | 994.653 | 1417.7
308.15 K | 990.302 | 1402.5

C1CCOCC1 [tetrahydropyran]
[1]
Conditions | mass density [kg/m3] | speed of sound [m/s]
298.15 K | 879.136 | 1269.9
303.15 K | 873.992 | 1246.8
308.15 K | 868.831 | 1224.5

C1CCOCC1 [tetrahydropyran] + CNC=O
[2], x1 = 1
Conditions | mass density [kg/m3] | speed of sound [m/s]
298.15 K | 879.136 | 1269.9
303.15 K | 873.992 | 1246.8
308.15 K | 868.831 | 1224.5

C1CCOCC1 [tetrahydropyran] + Cc1ccccc1N
[2], x2 = 0
Conditions | mass density [kg/m3] | speed of sound [m/s]
298.15 K | 879.136 | 1269.9
303.15 K | 873.992 | 1246.8
308.15 K | 868.831 | 1224.5
